This note sets out measurements from patent US5486516A, “Furopyrimidine derivatives” (DowElanco, priority 1993, dated 1996).

A word on the mortality: it is the share of the test organisms that died.

The subject of data set [1] is Pyricularia oryzae (rice blast). Kind of data set: whole plant or invertebrate. The settings on record: foliar, read-out: RICE BLAST control rating. The class given is in vivo.
Data set [2] concerns Southern corn rootworm (Diabrotica undecimpuctata howardi Barber). The data set is described as follows: Mite/insect screen, corn rootworm. The data set is classed as in vivo. The settings on record: soil. In outline:
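Compound in acetone/alcohol with emulsifiers, diluted with water; 1 mL applied to 15 g dry sandy soil holding a presoaked corn seed. After 6–12 h drying, five 2-3 instar larvae added, held at 23° C; percent mortality and phytotoxicity scored after standard exposure periods.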

The subject of data set [3] is southern armyworm (Spodopetra eridania Cramer). The data set is described as follows: Mite/insect screen, Southern armyworm. The settings on record: sprayed leaves. The class given is in vivo. In outline: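 Compounds in acetone/alcohol with Toximul emulsifiers, diluted in water, sprayed to runoff on squash leaves at 10 psi and dried 1 h. Excised treated leaves fed to southern armyworm larvae in Petri dishes; percent mortality scored after standard exposure.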

The test system of data set [4] is Twospotted spider mites (Tetranychus urticae Koch). The data set is described as follows: Mite/insect screen, twospotted spider mites. The settings on record: sprayed leaves. The data set is classed as in vivo. In outline:
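Squash cotyledons infested with mites were sprayed to runoff at 10 psi with compound in acetone/alcohol plus emulsifiers, diluted in water to the stated concentrations. Percent mortality and phytotoxicity were scored after standard exposure periods.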

Data set [5] deals with melon aphids (Aphis gossvpii Glover). The data set is described as follows: Mite/insect screen, melon aphids. The data set is classed as in vivo. The settings on record: sprayed leaves. In outline: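 Aphids established on squash cotyledons were sprayed to runoff with compound in acetone/alcohol with sulfonate/nonionic emulsifiers, diluted in water to test concentrations. Leaves dried 1 h. Percent mortality scored after standard exposure periods.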

Data set [6] has as its system Puccinia recondita tritici (leaf rust). The data set is described as follows: Plant pathology screen (Test 1), leaf rust on wheat. Particulars: in Triticum aestivum, foliar, read-out: LEAF RUST control rating.
Data set [7] relates to Pseudoperonospora cubensis (downy mildew). Kind of data set: Plant pathology screen (Test 1), downy mildew on squash. The settings on record: foliar, read-out: DOWN MDEW control rating.
Data set [8] deals with Erysiphe graminis tritici (powdery mildew). The data set is described as follows: Plant pathology screen (Test 1), powdery mildew on wheat. The settings on record: Blumeria graminis, in Triticum aestivum, foliar, read-out: POWD MDEW control rating.
The test system of data set [9] is Botrytis cinerea (gray mold). Kind of data set: Plant pathology screen (Test 1), gray mold on grape berries. The settings on record: read-out: GRAY MOLD control rating.
[10] abbreviates: Diabrotica, CRW rate 24.00 ppm, read-out: CRW results (percent mortality).
Setting [11] is: Spodoptera eridania, rate 400 ppm, read-out: SAW results (percent mortality).
The mark [12] stands for this setting: Tetranychus urticae, rate 400 ppm, read-out: SM results (percent mortality).
Setting [13] is: Aphis, rate 400 ppm, read-out: MA results (percent mortality).

Molecules are shown by their SMILES.

Take `Cc1oc2ncnc(NC(C)(C)Cc3ccccc3)c2c1C` [Example 77, 5,6-dimethyl-N-[1,1-dimethyl-2-phenylethyl]furo[2,3-d]pyrimidin-4-amine]: the pest or weed control at 400 µg/mL in data set [1] lay within 90 to 100%; in data set [6], 90 to 100%; in data set [7] it was 90 to 100%; in data set [8] it was 90 to 100%; in data set [9], 0 to 19%. Besides, the mortality at 12 ppm in data set [2] (Diabrotica, CRW rate 12.00 ppm, read-out: CRW results (percent mortality)) turned out to be 0%. The mortality at 24 ppm in data set [2] (setting [10]) is 0%. Moreover, the mortality at 200 ppm in [3] (Spodoptera eridania, rate 200 ppm, read-out: SAW results (percent mortality)) stood at 0%; in data set [4] (Tetranychus urticae, rate 200 ppm, read-out: SM results (percent mortality)), 50%; in [5] (Aphis, rate 200 ppm, read-out: MA results (percent mortality)), 100%. Moreover, the mortality at 400 ppm in data set [3] (setting [11]) came to 0%; in data set [4] (setting [12]), 90%; in [5] (setting [13]), 80%.

Regarding `Cc1coc2ncn(CCc3ccc4ccccc4c3)c(=N)c12` [Example 79, 5-methyl-3-[2-(2-naphthyl)ethyl]furo[2,3-d]pyrimidin-4(3H)-imine], the pest or weed control at 400 µg/mL in data set [1] was 20 to 89%; in data set [6] it was 20 to 89%; in data set [7], 90 to 100%; in [8] it was 0 to 19%; in data set [9], 0 to 19%. Also, the mortality at 24 ppm in data set [2] (setting [10]) came out at 0%. For the same compound, the mortality at 400 ppm in data set [3] (setting [11]), in data set [4] (setting [12]) and in [5] (setting [13]) was 0% in each case.

As to `Cc1oc2ncn(CCc3cccc(C(F)(F)F)c3)c(=N)c2c1C` [Example 81, 3-[2-[3-(trifluoromethyl)phenyl]ethyl]-5,6-dimethylfuro[2,3-d]pyrimidin-4(3H)-imine], the pest or weed control at 400 µg/mL in data set [1] lay within 90 to 100%; in data set [6], 90 to 100%; in data set [7], 90 to 100%; in [8], 20 to 89%; in data set [9], 0 to 19%. Besides, the “CRW results (percent mortality)” value in data set [2] (CRW rate 24.00 ppm) was determined as 0%. Moreover, the mortality at 24 ppm in data set [2] (setting [10]) turned out to be 0%. The mortality at 400 ppm in [3] (setting [11]), in data set [4] (setting [12]) and in data set [5] (setting [13]) was 0% throughout. Besides, the “SAW results (percent mortality)” value in [3] (rate 400 ppm) was 0%. Further, the “SM results (percent mortality)” value in data set [4] (rate 400 ppm) was 0%. Moreover, the “MA results (percent mortality)” value in [5] (rate 400 ppm) stood at 0%.
